The text below walks through data of US4645773A, “β-carboline-3-oxadiazolyl derivatives, and their use as psychotropic agents” (Schering Aktiengesellschaft, priority 1984, dated 1987).

In assay [1] the target is benzodiazepine receptor. Nature of the assay: displacement of 3H-flunitrazepam specific binding to benzodiazepine receptors (in vitro), rat forebrain membranes. The following applies: rat forebrain suspension, 3H-flunitrazepam 1.0 nM, 0° C., 40-60 min, pH 7.1. The protocol: These sites are called benzodiazepine receptors. The displacement activity of the compounds of the invention has been determined by determining the IC50 value and the ED50 value.
The IC50 value represents the concentration which causes a displacement of 50% of the specific binding of ^3 H-flunitrazepam (1.0 nM, 0° C.) in samples comprising a total volume of 0.55 ml of a suspension of brain membrane, e.g from rats.
The displacement test is performed as follows:
0.50 ml of a suspension of non-treated rat forebrain in 25 mM KH2 PO4, pH=7.1 (5-10 mg tissue/sample) is incubated for 40-60 minutes at 0° C. together with ^3 H-diazepam (specific activity 87 Ci/mmol, 1.0 nM) or ^3 H-flunitrazepam (specific activity 87 Ci/mmol, 1.0 nM). After incubation, the suspension is filtered through "Whatman GF/C" glass fiber filters, the residue washed twice with cold buffer solution and the radioactivity measured by scintillation counting.
The test is repeated except that prior to the addition of the radioactive labelled benzodiazepine, a given amount or an excessive amount of the compound, the displacement capability of which is to be determined, is added. Based on the data obtained the IC50 value can be calculated.
Background: In a radioligand displacement assay an active substance lowers the binding of a labelled ligand.

Assay [2] relates to benzodiazepine receptor. Nature of the assay: in vivo inhibition of 3H-flunitrazepam binding to benzodiazepine receptors in mouse forebrain. The following applies: mice, usually subcutaneous, 3H-flunitrazepam i.v. 15 min later, killed after further 20 min. On the procedure:
The ED50 value represents the dose (mg/kg) of a test substance which causes the specific binding of flunitrazepam to benzodiazepine receptors in a living brain to be reduced to 50% of the control value. Such an in vivo test is carried out as follows:
Groups of mice are injected with the test substance at different doses and usually subcutaneously. 15 minutes later ^3 H-flunitrazepam is administered intravenously to the mice and after further 20 minutes the mice are killed. Their forebrain membranes are removed and the radioactivity of these forebrain membranes is measured by scintillation counting. The ED50 value is determined from dose-response curves.

In the case of `COCc1c(-c2nc(C)no2)ncc2[nH]c3cccc(OCc4ccccc4)c3c12`, the “Affinity for the benzodiazepine receptor, inhibition of 3H-flunitrazepam binding, IC50 (in vitro)” value on benzodiazepine receptor [1] came out at 0.4 ng/mL. In the assay with benzodiazepine receptor [2], the “inhibition of 3H-flunitrazepam binding, ED50 (in vivo)” value (“inhibition … (in vivo)” below) was found to be 0.9 mg/kg.
Consider `CCc1nc(-c2ncc3[nH]c4cccc(OCc5ccccc5)c4c3c2COC)no1`, for which the “Affinity for the benzodiazepine receptor, inhibition of 3H-flunitrazepam binding, IC50 (in vitro)” value on benzodiazepine receptor [1] came to 0.5 ng/mL. In addition, the “inhibition … (in vivo)” value with benzodiazepine receptor [2] is 1.0 mg/kg.
Consider `CCOCc1cccc2[nH]c3cnc(-c4nc(CC)no4)c(C)c3c12`, for which the “Affinity for the benzodiazepine receptor, inhibition of 3H-flunitrazepam binding, IC50 (in vitro)” value at benzodiazepine receptor [1] came out at 0.26 ng/mL. Also, the “inhibition … (in vivo)” value in the assay with benzodiazepine receptor [2] is on record as 0.4 mg/kg.
In the same order, the values of `CCc1noc(-c2ncc3[nH]c4cccc(OC(C)C)c4c3c2C)n1` are 0.5 ng/mL and 0.4 mg/kg.
Take `CCc1noc(-c2ncc3[nH]c4cccc(OC(C)C)c4c3c2COC)n1`: the “Affinity for the benzodiazepine receptor, inhibition of 3H-flunitrazepam binding, IC50 (in vitro)” value at benzodiazepine receptor [1] turned out to be 0.2 ng/mL. In the assay on benzodiazepine receptor [2], the “inhibition … (in vivo)” value worked out at 0.2 mg/kg.
Turning to `CCc1noc(-c2ncc3[nH]c4cccc(OC5C=CCCC5)c4c3c2COC)n1` (stereo not drawn), on benzodiazepine receptor [1], the “Affinity for the benzodiazepine receptor, inhibition of 3H-flunitrazepam binding, IC50 (in vitro)” value turned out to be 0.4 ng/mL. The “inhibition … (in vivo)” value in the assay on benzodiazepine receptor [2] is listed as 0.75 mg/kg.
Regarding `CCc1noc(-c2ncc3[nH]c4cccc(OC5CCC5)c4c3c2COC)n1`, on benzodiazepine receptor [1], the “Affinity for the benzodiazepine receptor, inhibition of 3H-flunitrazepam binding, IC50 (in vitro)” value turned out to be 0.4 ng/mL. Moreover, the “inhibition … (in vivo)” value in the assay with benzodiazepine receptor [2] is given as 0.6 mg/kg.
For `CCCOc1cccc2[nH]c3cnc(-c4nc(CC)no4)c(COC)c3c12` [3-[5-(3-ethyl-1,2,4-oxadiazole)-yl]-4-methoxymethyl-5-propoxy-β-carboline], the “Affinity for the benzodiazepine receptor, inhibition of 3H-flunitrazepam binding, IC50 (in vitro)” value at benzodiazepine receptor [1] stood at 0.3 ng/mL. Further, the “inhibition … (in vivo)” value with benzodiazepine receptor [2] turned out to be 1.4 mg/kg.
Taken in the same sequence, the figures for `CCc1noc(-c2cc3c(cn2)[nH]c2ccc(C#CCN(C)C)cc23)n1` [3-[5-(3-ethyl-1,2,4-oxadiazole)-yl]-6-(3-dimethylaminopropargyl)-β-carboline] were 0.4 ng/mL and 7.9 mg/kg.
